Measurements published in patent US8507410B2, “Pyridazinone compound and use thereof” (Sumitomo Chemical Company, Limited, priority 2009, dated 2013).

How the values were obtained:
Lolium multiflorum = assay: Test Example 1-1: foliar spray, controlling effect on Lolium multiflorum; format: in vivo; design: key: 0 represents “no effect”; 10 represents “complete death”; a state of the plant therebetween is classified into 1 to 9; conditions: treatment amount 250 g/ha; sprayed at first to second leaf stage; visually evaluated after 20 days
Method: A plastic cup with a diameter of 8 cm and a depth of 6.5 cm was filled with soil. Seeds of Lolium multiflorum were sowed in the cup, and then the plant was grown until the first to second leaf stage. Then, a determined amount of a test solution containing the compound of the present invention was sprayed onto the whole plant uniformly. The test solution was prepared by dissolving a predetermined amount of the compound of the present invention in a 2% solution of Tween 20 (polyoxyethylene sorbitan fatty acid ester, MP Biomedicals, Inc.) in dimethylformamide and then, diluting the solution with water. After the spray treatment, the plant was grown in a greenhouse. After 20 days, a controlling effect of the compound on Lolium multiflorum was visually evaluated. The effect was classified into 11 levels, from 0 to 10 (0 represents “no effect”; 10 represents “complete death”; and a state of the plant therebetween is classified into 1 to 9).
Compound D as shown below was similarly tested as a comparative example.

Echinochloa crus-galli = assay: Test Example 1-2: foliar spray, controlling effect on Echinochloa crus-galli; format: in vivo; design: key: 0 represents “no effect”; 10 represents “complete death”; a state of the plant therebetween is classified into 1 to 9; conditions: treatment amount 1,000 g/ha; sprayed at second- to third-leaf stage; visually evaluated after 20 days
Method: A plastic cup with a diameter of 8 cm and a depth of 6.5 cm was filled with soil. Seeds of Echinochloa crus-galli were sowed in the cup, and then the plant was grown until the second- to third-leaf stage. Then, a determined amount of a test solution containing the compound of the present invention was sprayed onto the whole plant uniformly. The test solution was prepared by dissolving a predetermined amount of the compound of the present invention in a 2% solution of Tween 20 (polyoxyethylene sorbitan fatty acid ester, MP Biomedicals, Inc.) in dimethylformamide and then diluting the solution with water. After the spray treatment, the plant was grown in a greenhouse. After 20 days, a controlling effect of the compound on Echinochloa crus-galli was visually evaluated. The effect was classified into 11 levels, from 0 to 10 (0 represents “no effect”; 10 represents “complete death”; and a state of the plant therebetween is classified into 1 to 9).
(§1) Compound D was similarly tested as a comparative example.

Galium aparine = assay: Test Example 1-3: foliar spray, controlling effect on Galium aparine; format: in vivo; design: key: 0 represents “no effect”; 10 represents “complete death”; a state of the plant therebetween is classified into 1 to 9; conditions: treatment amount 250 g/ha; sprayed at second- to third-leaf stage; visually evaluated after 20 days
Method: A plastic cup with a diameter of 8 cm and a depth of 6.5 cm was filled with soil. Seeds of Galium aparine were sowed in the cup, and then the plant was grown until the second- to third-leaf stage. Then, a determined amount of a test solution containing the compound of the present invention was sprayed onto the whole plant uniformly. The test solution was prepared by dissolving a predetermined amount of the compound of the present invention in a 2% solution of Tween 20 (polyoxyethylene sorbitan fatty acid ester, MP Biomedicals, Inc.) in dimethylformamide and then diluting the solution with water. After the spray treatment, the plant was grown in a greenhouse. After 20 days, a controlling effect of the compound on Galium aparine was visually evaluated. The effect was classified into 11 levels, from 0 to 10 (0 represents “no effect”; 10 represents “complete death”; and a state of the plant therebetween is classified into 1 to 9).
as §1

Adoxophyes orana = assay: Test Example 2-1: artificial diet test on first-instar larvae of Adoxophyes orana; format: in vivo; conditions: 500 ppm test solution, 1 mL on artificial diet; 25° C., 7 days
Method: The formulation of the compound of the present invention obtained in Formulation Example 3 was diluted with water so that the concentration of the active ingredient became 500 ppm to prepare a test solution.
(§2) An artificial diet, Silkmate 2S (Nihon Nosan Kogyo Corp.) was sliced into 2 mm in thickness and then placed on the bottom of a polyethylene cup. Then, 1 mL of the test solution was poured into the polyethylene cup. After air dried, 30 first-instar larvae of Adoxophyes orana were released into the polyethylene cup, and the cup was sealed with a lid. After the polyethylene cup was kept at 25° C. for 7 days, the number of surviving insects was counted. A death rate was calculated by the following equation, and the effect of the tested compound was evaluated with the following insecticidal indexes. Death rate (%)={1−(Number of surviving insects/Number of tested insects)}×100 Insecticidal indexes 4: death rate of 100%, 3: death rate of 80-99%, 2: death rate of 60-79%, 1: death rate of 30-59%, 0: death rate of 0-29%

Spodoptera litura = assay: Test Example 2-2: artificial diet test on fourth-instar larvae of Spodoptera litura; format: in vivo; conditions: 500 ppm test solution, 1 mL on artificial diet; 25° C., 6 days
Method: as §2, with “The formulation of the compound of the present invention obtained in Formulation Example 3 was diluted with water so that the concentration of the active ingredient became 500 ppm to prepare a test solution. An” for “An”, “diet, Insecta LF” for “diet, Silkmate 2S”, “dried, 5 fourth-instar” for “dried, 30 first-instar”, “of Spodoptera litura” for “of Adoxophyes orana”, “for 6” for “for 7”

Culex pipiens pallens = assay: Test Example 2-3: last-instar larvae of Culex pipiens pallens released into dilution; format: in vivo; conditions: active ingredient concentration 3.5 ppm in water; after 8 days
Method: The formulation of the compound of the present invention obtained in Reference Example 3 was diluted with water so that the concentration of the active ingredient became 500 ppm to prepare a test solution. 0.7 mL of the test solution was diluted with ion-exchanged water so that the active ingredient concentration became 3.5 ppm. Into the dilution, 20 last-instar larvae of Culex pipiens pallens were released. After 8 days, the number of dead insects was counted. A death rate was calculated by the following equation, and the effect of the tested compound was evaluated with following insecticidal indexes of 4: death rate of 91-100%, 2: death rate of 11-90%, and 0: death rate of 0-10%. Death rate (%)=(Number of dead insects/Number of tested insects)×100

Aphis gossypii = assay: Test Example 2-6: cucumber seedling spray, imagoes of Aphis gossypii; format: in vivo; conditions: 500 ppm, 10 mL sprayed on cucumber seedling one day after release; counted five days after spraying
Method: The formulation of the compound of the present invention obtained in Reference Example 3 was diluted with water so that the concentration of the active ingredient became 500 ppm to prepare a test solution. On a cucumber seedling at the second true leaf stage placed in a polyethylene cup, about 30 imagoes of Aphis gossypii were released. One day after the release of aphids, 10 mL of the test solution was sprayed on the plant. Five days after the spraying treatment, the number of the insects parasitizing the leaves of the plant was counted, and a controlling value was determined by the following equation. Controlling value (%)={1−(Cb×Tai)/(Cai×Tb)}×100 wherein Cb: the number of insects in a non-treated section before treatment, Cai: the number of insects in a non-treated section on observation, Tb: the number of insects in a treated-section before treatment, Tai: the number of insects in a treated section on observation.

Bemisia tabaci = assay: Test Example 2-7: tomato seedling spray, larvae of Bemisia tabaci; format: in vivo; conditions: 500 ppm, 10 ml/cup sprayed on tomato seedling; 25° C., 7 days
Method: The formulation of the compound of the present invention obtained in Reference Example 4 was diluted with water so that the concentration of the active ingredient became 500 ppm to prepare a test solution. On a tomato seedling at the third true leaf stage placed in a polyethylene cup, imagoes of Bemisia tabaci were released and allowed to lay eggs for about 24 hours. The plant was placed in a greenhouse for 8 days. When larvae of Bemisia tabaci hatched from the eggs, 10 ml/cup of the test solution was sprayed. After the plant was kept at 25° C. for 7 days, the number of the larvae surviving on the tomato leaves was counted, and a controlling value was determined by the following equation. Controlling value (%)={1−(Cb×Tai)/(Cai×Tb)}×100 wherein Cb: the number of insects in a non-treated section before treatment, Cai: the number of insects in a non-treated section on observation, Tb: the number of insects in a treated-section before treatment, Tai: the number of insects in a treated section on observation.

[1] = tested on: Frankliniella occidentalis; assay: Test Example 2-8: sprayed cucumber leaf, larvae of Frankliniella occidentalis; format: in vivo; conditions: 500 ppm, 10 mL/cup sprayed on cucumber seedling; 25° C., 7 days
Method: The formulation of the compound of the present invention obtained in Reference Example 3 was diluted with water so that the concentration of the active ingredient became 500 ppm to prepare a test solution. On a cucumber seedling at the second true leaf stage planted in a polyethylene cup, 10 mL/cup of the test solution was sprayed. After the test solution was dried, the first true […] cut off and then placed in a polyethylene cup. Into the polyethylene cup, 20 larvae of Frankliniella occidentalis were released, and the cup was sealed with a lid. After the cup was kept at 25° C. for 7 days, the number of the insects surviving on the cucumber leaves was counted, and a controlling value was determined by the following equation. Controlling value (%)={1-(Cb×Tai)/(Cai×Tb)}×100 wherein Cb: the number of insects in a non-treated section before treatment, Cai: the number of insects in a non-treated section on observation, Tb: the number of insects in a treated-section before treatment, Tai: the number of insects in a treated section on observation.

## CCc1cc(CC)c(-c2c(OCS(C)(=O)=O)c(C)nn(C)c2=O)c(CC)c1 [I-4-1, 2,6-dimethyl-5-methylsulfonylmethoxy-4-(2,4,6-triethylphenyl)-3(2H)-pyridazinone]
other
  melting point: 142 to 143 °C

## CCc1cc(C)cc(CC)c1-c1c(OC)c(C)nn(C)c1=O [Compound D]
Lolium multiflorum
  controlling effect on Lolium multiflorum (11 levels, 0 to 10): 0
Echinochloa crus-galli
  controlling effect on Echinochloa crus-galli (11 levels, 0 to 10): 0
Galium aparine
  controlling effect on Galium aparine (11 levels, 0 to 10): 0

## COCOc1c(C)nn(C)c(=O)c1-c1cc(-c2ccc(Cl)cc2)ccc1C [I-1-6]
Adoxophyes orana
  insecticidal index (death rate): 4 (death rate of 100%)
Spodoptera litura
  insecticidal index (death rate): 3 (death rate of 80-99%)
Culex pipiens pallens
  insecticidal index (death rate): 4 (death rate of 91-100%)
Aphis gossypii
  controlling value: ≥ 90%
Bemisia tabaci
  controlling value: ≥ 90%
[1]
  controlling value: ≥ 90%
